Source: patent US20230129438A1, “IMMUNOMODULATING IMINE-OXAZOLINE AZALIDES” (Zoetis Services LLC, priority 2020, published 2023)
Entries after “also recorded” stand apart in the source; their conditions may differ. Where two headings read alike, the source gives them in different places.

Tests used:
IL-1β = test: Bovine whole blood assay, IL-1β; format: cell-based; details: drug concentration giving overstimulation of IL-1β over LPS (cellular toxicity signal)
Protocol: (protected from light) for 30 minutes.

P. multocida 46572 = test: In vivo mouse lung infection challenge model (murine efficacy model); details: P. multocida infection in mice
P. multocida = test: Murine P. multocida intranasal challenge study with lung tissue RNA sequence analysis; format: in vivo, mouse; details: 32 mg/kg subcutaneous 18 hours after challenge (T03); placebo 0%
Protocol: In one murine P. multocida intranasal challenge study, mice were administered tulathromycin (16 mg/kg; T02), M9 (32 mg/kg; T03), or ceftiofur (9 mg/kg; T04) by subcutaneous injection 18 hours after bacterial challenge (5×10^3 CFU/mouse) for lung tissue RNA sequence analysis. Survival at Day 7 was about 80%, 50%, and 90% for T02, T03, and T04, respectively, compared to placebo at 0%. Differential gene expression from total lung tissue RNA sequence analysis indicated at least 226 unique genes were up or down regulated (with significance) for T03. Output from ingenuity pathway analysis of these unique genes predicted major upstream regulators of the involved pathways. Data was analyzed based on the number of genes being modulated in the same direction that were associated with a given upstream regulator. An activation z-score of 2 or greater is considered significant and the direction change is indicated by + (activated) or − (inhibited). The top 5 pathways included: IL-9 signaling, glucocorticoid receptor signaling, prolactin signaling, JAK STAT signaling, and IL-17 signaling. The top 6 upstream regulators (activation z-score) included: lipopolysaccharide (−6.725), TNF (−4.669), IFNγ (−5.759), IL-1β (−5.947), STAT1 (−2.787), and poly rI:rC-RNA (−5.289). Even though this study was run in the murine model, the top upstream regulators identified as being modulated by M9 include an almost ubiquitous overlap with the pathways identified in the natural disease study as being key mediators in BRD, and therefore is modulating highly relevant pathways in BRD pathobiology.

[1] = system: bovine respiratory disease (BRD); test: Natural bovine respiratory disease study; format: in vivo, beef calves
Protocol: The primary clinical endpoint for efficacy was treatment failure/success over a 14-day observation period. Clinically normal beef calves (150-200 kg) at moderate risk for BRD were dosed on arrival to the feedlot. Animals (N=114/group) received saline (T01), 5 mg/kg M9 (T02) or 10 mg/kg M9 (T03); or Zactran (T04). […] Bacterial isolates were collected at necropsy and MICs were evaluated (Table 4).

[2] = system: M. haemolytica (strain: OSU-012103-BHI); test: Bovine M. haemolytica intratracheal lung challenge model; format: in vivo
[3] = Separate study of M9 versus saline control (lung lesions, mortality); format: in vivo; details: 10 mg/kg
LCN2 = molecular target: T1, LCN2 (Bos taurus, UniProt A0AAA9TIZ6); test: Surface plasmon resonance (SPR) drug/target binding, LCN2; design: species or system bovine; details: read-out: Interaction KD
T1 sequence (A0AAA9TIZ6 24-200): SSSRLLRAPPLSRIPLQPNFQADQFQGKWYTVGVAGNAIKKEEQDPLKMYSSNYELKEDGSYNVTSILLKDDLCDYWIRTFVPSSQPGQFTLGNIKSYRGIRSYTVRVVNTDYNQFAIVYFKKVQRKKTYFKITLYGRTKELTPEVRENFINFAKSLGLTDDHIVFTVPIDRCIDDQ
Protocol: (§1) To further characterize the direct activity of the compounds of the invention, experiments to identify the drug's direct binding host partners(s) were performed with the aim of identifying the potential biological targets. Bovine primary cells (peripheral blood mononuclear cells [PBMCs] and polymorphonuclear cells [PMN/neutrophils]) and tissue (trachea, lung) protein homogenates were mixed with M9 and the macrolide, gamithromicin as a comparator. Tissue interactions were allowed to form using a heterogeneous assembly method (nematic protein organization technique, NPOT; Inoviem Scientific); and traditional western blots to identify native-structure proteins bound to the compound. Mass spectrometry analysis identified eight proteins involved in the interaction with M9 as compared to gamithromycin. The antibacterial macrolide gamithromycin was used as a comparator to differentiate specific binding to M9. These proteins were considered to be either direct binding partners of the drug or closely involved in the drug:target interaction (Table 6).
(§2) In order to add further clarity to binding partner identification, surface plasma resonance (SPR) technology was used. […]
(§3) KD is the equilibrium dissociation constant that was used to present the drug/target affinity. The identified targets associated with drug were measured by surface plasmon resonance (SPR) to define the KD.

SLAMF9 = SLAMF9 (Bos taurus, UniProt E1BNF9); test: Surface plasmon resonance (SPR) drug/target binding, SLAMF9; design: species or system bovine; details: read-out: Interaction KD
Protocol: as §1, §2, §3

NLRX1 = NLRX1 (Bos taurus, UniProt A7MB19); test: Drug binding partner identification (NPOT/SPR), NLRX1; design: species or system bovine; details: tissue PBMCs
Protocol: as §1, §2, §3

LPO = LPO (Bos taurus, UniProt P80025); test: Drug binding partner identification (NPOT/SPR), LPO; design: species or system bovine; details: tissue Trachea, PBMCs, PMNs
Protocol: as §1, §2, §3

TLR4 = molecular target: T2, TLR4 (Bos taurus, UniProt Q9GL65); test: Drug binding partner identification (NPOT/SPR), TLR4; design: species or system bovine; details: tissue PBMCs, Trachea
T2 sequence (Q9GL65 24-841): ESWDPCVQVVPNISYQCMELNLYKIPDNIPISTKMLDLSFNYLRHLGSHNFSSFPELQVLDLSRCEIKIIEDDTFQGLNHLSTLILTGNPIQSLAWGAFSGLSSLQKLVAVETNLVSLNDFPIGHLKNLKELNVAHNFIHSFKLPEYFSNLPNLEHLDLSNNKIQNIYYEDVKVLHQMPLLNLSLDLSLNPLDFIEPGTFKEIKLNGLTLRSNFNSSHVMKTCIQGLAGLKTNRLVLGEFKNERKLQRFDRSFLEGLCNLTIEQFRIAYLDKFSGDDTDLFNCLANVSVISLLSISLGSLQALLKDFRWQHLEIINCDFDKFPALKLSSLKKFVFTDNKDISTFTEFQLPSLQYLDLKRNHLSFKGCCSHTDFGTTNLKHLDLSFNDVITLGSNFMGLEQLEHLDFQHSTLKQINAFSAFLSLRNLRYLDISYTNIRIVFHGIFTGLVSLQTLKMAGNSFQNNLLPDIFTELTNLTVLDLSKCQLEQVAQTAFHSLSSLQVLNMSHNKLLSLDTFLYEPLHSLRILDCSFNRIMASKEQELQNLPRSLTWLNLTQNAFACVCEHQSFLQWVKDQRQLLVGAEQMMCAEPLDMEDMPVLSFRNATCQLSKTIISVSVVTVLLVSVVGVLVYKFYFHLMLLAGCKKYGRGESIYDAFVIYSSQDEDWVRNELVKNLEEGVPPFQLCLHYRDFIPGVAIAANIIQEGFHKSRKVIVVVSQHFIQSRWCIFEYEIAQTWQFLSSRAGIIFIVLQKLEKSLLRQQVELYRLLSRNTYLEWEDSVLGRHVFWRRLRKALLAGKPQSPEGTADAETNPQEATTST
Protocol: as §1, §2, §3

[4] = Separate PK study, plasma concentration; details: following a 10 mg/kg dose

Chain of SLAMF9 (E1BNF9 1-289): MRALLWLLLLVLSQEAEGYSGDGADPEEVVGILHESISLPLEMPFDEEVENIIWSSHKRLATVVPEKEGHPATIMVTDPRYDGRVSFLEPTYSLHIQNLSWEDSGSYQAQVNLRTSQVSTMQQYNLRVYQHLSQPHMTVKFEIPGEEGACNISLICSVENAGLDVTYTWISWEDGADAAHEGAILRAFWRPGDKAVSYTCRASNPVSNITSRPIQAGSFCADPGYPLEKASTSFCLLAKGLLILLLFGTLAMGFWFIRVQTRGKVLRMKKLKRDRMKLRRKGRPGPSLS
Chain of NLRX1 (A7MB19 1-973): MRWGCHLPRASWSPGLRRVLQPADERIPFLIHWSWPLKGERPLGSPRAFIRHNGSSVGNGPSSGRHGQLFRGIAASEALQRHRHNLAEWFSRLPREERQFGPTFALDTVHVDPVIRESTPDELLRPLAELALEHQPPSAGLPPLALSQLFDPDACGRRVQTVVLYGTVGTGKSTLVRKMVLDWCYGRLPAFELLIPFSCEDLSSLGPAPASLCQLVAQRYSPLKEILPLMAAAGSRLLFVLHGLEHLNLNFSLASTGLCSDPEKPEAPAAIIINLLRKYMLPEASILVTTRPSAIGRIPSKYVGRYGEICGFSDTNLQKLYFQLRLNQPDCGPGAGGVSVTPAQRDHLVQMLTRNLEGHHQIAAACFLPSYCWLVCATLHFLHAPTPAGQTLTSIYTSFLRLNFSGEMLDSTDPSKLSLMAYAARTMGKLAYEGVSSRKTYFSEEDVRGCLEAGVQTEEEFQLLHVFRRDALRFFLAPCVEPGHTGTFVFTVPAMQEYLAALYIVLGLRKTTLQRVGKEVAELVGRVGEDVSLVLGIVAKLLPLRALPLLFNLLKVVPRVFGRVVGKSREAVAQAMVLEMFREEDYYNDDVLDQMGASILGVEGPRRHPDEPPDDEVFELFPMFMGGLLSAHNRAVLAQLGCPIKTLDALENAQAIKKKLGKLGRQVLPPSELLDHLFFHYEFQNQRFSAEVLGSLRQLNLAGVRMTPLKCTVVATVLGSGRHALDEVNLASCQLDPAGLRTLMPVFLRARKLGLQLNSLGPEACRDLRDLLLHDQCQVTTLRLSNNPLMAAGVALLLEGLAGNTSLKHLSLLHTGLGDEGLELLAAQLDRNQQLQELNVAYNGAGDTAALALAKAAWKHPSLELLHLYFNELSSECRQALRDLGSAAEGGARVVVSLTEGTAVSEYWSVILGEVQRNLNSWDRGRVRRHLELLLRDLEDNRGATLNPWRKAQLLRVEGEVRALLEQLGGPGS

Compound: CCCNC[C@]1(O)[C@H](C)O[C@@H](O[C@H]2[C@H](C)[C@@H](O[C@@H]3O[C@H](C)C[C@H](NC)[C@H]3O)[C@](C)(O)C[C@@H](C)CN[C@H](C)[C@@H](O)[C@](C)(O)[C@@H](CC)OC(=O)[C@@H]2C)C[C@@]1(C)OC [Example M9, (2R,3S,4R,5R,8R,10R,11R,12S,13S,14R)-2-ethyl-3,4,10-trihydroxy-13-(((2R,4R,5S,6S)-5-hydroxy-4-methoxy-4,6-dimethyl-5-((propylamino)methyl)-tetrahydro-2H-pyran-2-yl)oxy)-11-(((2S,3R,4S,6R)-3-hydroxy-6-methyl-4-(methylamino)tetrahydro-2H-pyran-2-yl)oxy)-3,5,8,10,12,14-hexamethyl-1-oxa-6-azacyclopentadecan-15-one]
- IL-Iβ OS of LPS (IL-1β): > 500 µM
- clinical efficacy, in words (P. multocida 46572): clinically efficacious
- Survival at Day 7 (P. multocida): ~50%
- Percent failure (treatment failure) ([1]; 10 mg/kg (T03), dosed on arrival, 14-day observation, saline 43%): 8.8%
- efficacy versus untreated control groups, in words ([1]; reduction of lung lesions and treatment failure): statistical superiority
- Mortality ([2]; T02: 10 mg/kg subcutaneous Day −1, M. haemolytica challenge Day 0, saline 4/6): 1/6
- IL-6 levels, in words ([2]; bovine M. haemolytica challenge, blood biomarker): significantly reduced
- CD163 expression, in words ([2]; cattle, monocytes/macrophages in whole blood, flow cytometry): suppressed; also recorded: mitigates the pathologic increase
- lung lesions ([3]; saline control 31%, p=0.023): 20%
- Mortality ([3]; saline control 38.9%, p=0.025): 13%
- Kd (LCN2; pH 5.5, SPR): 0.435 mM
- Kd (LCN2; pH 6.5, SPR): 4.21 mM
- Kd (SLAMF9; pH 5.5, SPR): 6.33 mM
- Kd (SLAMF9; pH 6.5, SPR): 2.15 mM
- Interaction (NLRX1): Indirect
- Interaction (LPO): Indirect
- Interaction (TLR4): Indirect
- maximum plasma concentration [4]: 5 µg/mL
